Test results from PubChem BioAssay AID1963835 (Molecular Pharmacology Branch, DTP, NCI, 2024).

Tested on: 699152-130-R-J1-PDC complex spheroid viability
Assay: Anticancer human tumor 699152-130-R-J1-PDC patient-derived pancreatic carcinoma cell line growth inhibition [POLQ]
Settings: for IC50: curve of first compound; for viability, T/C: stronger effect = lower value
Procedure, shortened: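 Patient-derived tumour cells were co-cultured with HUVEC and mesenchymal stem cells as multicellular spheroids at 37 °C. They were treated with POLQ inhibitors (novobiocin, ART-558, RP6685) alone or combined with other agents. Top concentrations were at or near clinical Cmax (otherwise 10 microM; SN-38 at 1 microM), decreasing in half-log steps.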

[1] = second compound 0.0316 µM, first compound 0.00316 µM
[2] = second compound 0.0316 µM, first compound 0.01 µM
[3] = second compound 0.0316 µM, first compound 0.0316 µM
[4] = second compound 0.0316 µM, first compound 0.1 µM
[5] = second compound 0.0316 µM, first compound 0.316 µM
[6] = second compound 0.0316 µM, first compound 1 µM
[7] = second compound 0.1 µM, first compound 0.00316 µM
[8] = second compound 0.1 µM, first compound 0.01 µM
[9] = second compound 0.1 µM, first compound 0.0316 µM
[10] = second compound 0.1 µM, first compound 0.1 µM
[11] = second compound 0.1 µM, first compound 0.316 µM
[12] = second compound 0.1 µM, first compound 1 µM
[13] = second compound 0.316 µM, first compound 0.00316 µM
[14] = second compound 0.316 µM, first compound 0.01 µM
[15] = second compound 0.316 µM, first compound 0.0316 µM
[16] = second compound 0.316 µM, first compound 0.1 µM
[17] = second compound 0.316 µM, first compound 0.316 µM
[18] = second compound 0.316 µM, first compound 1 µM
[19] = second compound 1 µM, first compound 0.00316 µM
[20] = second compound 1 µM, first compound 0.01 µM
[21] = second compound 1 µM, first compound 0.0316 µM
[22] = second compound 1 µM, first compound 0.1 µM
[23] = second compound 1 µM, first compound 0.316 µM
[24] = second compound 1 µM, first compound 1 µM
[25] = second compound 3.16 µM, first compound 0.00316 µM
[26] = second compound 3.16 µM, first compound 0.01 µM
[27] = second compound 3.16 µM, first compound 0.0316 µM
[28] = second compound 3.16 µM, first compound 0.1 µM
[29] = second compound 3.16 µM, first compound 0.316 µM
[30] = second compound 3.16 µM, first compound 1 µM
[31] = second compound 10 µM, first compound 0.00316 µM
[32] = second compound 10 µM, first compound 0.01 µM
[33] = second compound 10 µM, first compound 0.0316 µM
[34] = second compound 10 µM, first compound 0.1 µM
[35] = second compound 10 µM, first compound 0.316 µM
[36] = second compound 10 µM, first compound 1 µM
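Further: spheroids exposed to agents for 7 days before viability reading.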
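Wherever viability, T/C is given: percent of DMSO vehicle control viability so 100% = vehicle and 0% = no viable signal.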

In the case of `C=CCn1c(=O)c2cnc(Nc3ccc(N4CCN(C)CC4)cc3)nc2n1-c1cccc(C(C)(C)O)n1` + Cc1cccc(N(C)C(=O)C2C(O)CCN2c2nc(C)cc(C(F)(F)F)c2C#N)c1, the IC50 (second compound 0.0316 µM) is reported as over 1 µM, the IC50 (second compound 0.1 µM) is reported as over 1 µM and the IC50 (second compound 0.316 µM) is reported as over 1 µM. For the same compound, the IC50 (second compound 1 µM) was over 1 µM, the IC50 (second compound 3.16 µM) was over 1 µM and the IC50 (second compound 10 µM) was over 1 µM. For the same compound, the viability, T/C [1] was 94.8%, the viability, T/C [2] was 91% and the viability, T/C [3] was 87.4%. For the same compound, the viability, T/C [4] was 86.9%, the viability, T/C [5] was 80.3% and the viability, T/C [6] was 73%. The viability, T/C [7] was 87.9%, the viability, T/C [8] was 90.2% and the viability, T/C [9] was 95.6%. The viability, T/C [10] was 83.9%, the viability, T/C [11] was 82.2% and the viability, T/C [12] was 68.7%. The viability, T/C [13] was 88.8%, the viability, T/C [14] was 91.4% and the viability, T/C [15] was 89.4%. The viability, T/C [16] was 82.7%, the viability, T/C [17] was 85.4% and the viability, T/C [18] was 69.8%. For the same compound, the viability, T/C [19] was 96.5%, the viability, T/C [20] was 85.2% and the viability, T/C [21] was 102%. For the same compound, the viability, T/C [22] was 84%, the viability, T/C [23] was 80.2% and the viability, T/C [24] was 67%. The viability, T/C [25] was 83.3%, the viability, T/C [26] was 107% and the viability, T/C [27] was 97.6%. The viability, T/C [28] was 99.2%, the viability, T/C [29] was 81.7% and the viability, T/C [30] was 65.4%. It also gave a viability, T/C [31] of 84.8%, a viability, T/C [32] of 89.3% and a viability, T/C [33] of 89.2%. For the same compound, the viability, T/C [34] was 86.7%, the viability, T/C [35] was 78.1% and the viability, T/C [36] was 73.9%.
In the case of `CCCS(=O)(=O)Nc1ccc(F)c(C(=O)c2c[nH]c3ncc(-c4ccc(Cl)cc4)cc23)c1F` + Cc1cccc(N(C)C(=O)C2C(O)CCN2c2nc(C)cc(C(F)(F)F)c2C#N)c1, the IC50 (second compound 0.0316 µM) is reported as 8.18 µM, the IC50 (second compound 0.1 µM) is reported as 8.55 µM and the IC50 (second compound 0.316 µM) is reported as 8.18 µM. For the same compound, the IC50 (second compound 1 µM) was 8.6 µM, the IC50 (second compound 3.16 µM) was 8.56 µM and the IC50 (second compound 10 µM) was 8.17 µM. The viability, T/C [3] was 110%, the viability, T/C [4] was 101% and the viability, T/C [5] was 120%. It also gave a viability, T/C [6] of 162%, a viability, T/C (second compound 0.0316 µM, first compound 3.16 µM) of 175% and a viability, T/C (second compound 0.0316 µM, first compound 10 µM) of 32.2%. The viability, T/C [9] was 105%, the viability, T/C [10] was 103% and the viability, T/C [11] was 126%. For the same compound, the viability, T/C [12] was 143%, the viability, T/C (second compound 0.1 µM, first compound 3.16 µM) was 199% and the viability, T/C (second compound 0.1 µM, first compound 10 µM) was 36.5%. For the same compound, the viability, T/C [15] was 103%, the viability, T/C [16] was 99.5% and the viability, T/C [17] was 125%. For the same compound, the viability, T/C [18] was 159%, the viability, T/C (second compound 0.316 µM, first compound 3.16 µM) was 195% and the viability, T/C (second compound 0.316 µM, first compound 10 µM) was 31.6%. It also gave a viability, T/C [21] of 109%, a viability, T/C [22] of 112% and a viability, T/C [23] of 141%. For the same compound, the viability, T/C [24] was 152%, the viability, T/C (second compound 1 µM, first compound 3.16 µM) was 172% and the viability, T/C (second compound 1 µM, first compound 10 µM) was 36.6%. The viability, T/C [27] was 124%, the viability, T/C [28] was 112% and the viability, T/C [29] was 118%. The viability, T/C [30] was 140%, the viability, T/C (second compound 3.16 µM, first compound 3.16 µM) was 181% and the viability, T/C (second compound 3.16 µM, first compound 10 µM) was 36.5%. For the same compound, the viability, T/C [33] was 117%, the viability, T/C [34] was 103% and the viability, T/C [35] was 134%. It also gave a viability, T/C [36] of 146%, a viability, T/C (second compound 10 µM, first compound 3.16 µM) of 175% and a viability, T/C (second compound 10 µM, first compound 10 µM) of 31.7%.
`CC[C@@]1(O)C(=O)OCc2c1cc1n(c2=O)Cc2cc3c(CN(C)C)c(O)ccc3nc2-1` + COC1C(OC(N)=O)C(O)C(Oc2ccc3c(O)c(NC(=O)c4ccc(O)c(CC=C(C)C)c4)c(=O)oc3c2C)OC1(C)C showed an IC50 (second compound 0.0316 µM) of over 0.1 µM, an IC50 (second compound 0.1 µM) of over 0.1 µM and an IC50 (second compound 0.316 µM) of over 0.1 µM. The IC50 (second compound 1 µM) was 0.095 µM, the IC50 (second compound 3.16 µM) was over 0.1 µM and the IC50 (second compound 10 µM) was over 0.1 µM. For the same compound, the viability, T/C (second compound 0.0316 µM, first compound 0.000316 µM) was 116%, the viability, T/C (second compound 0.0316 µM, first compound 0.001 µM) was 101% and the viability, T/C [1] was 99.3%. It also gave a viability, T/C [2] of 93.1%, a viability, T/C [3] of 79.6% and a viability, T/C [4] of 48.4%. The viability, T/C (second compound 0.1 µM, first compound 0.000316 µM) was 111%, the viability, T/C (second compound 0.1 µM, first compound 0.001 µM) was 99.6% and the viability, T/C [7] was 90.4%. The viability, T/C [8] was 93.2%, the viability, T/C [9] was 69% and the viability, T/C [10] was 60.2%. The viability, T/C (second compound 0.316 µM, first compound 0.000316 µM) was 112%, the viability, T/C (second compound 0.316 µM, first compound 0.001 µM) was 94.3% and the viability, T/C [13] was 84.9%. For the same compound, the viability, T/C [14] was 94%, the viability, T/C [15] was 77.9% and the viability, T/C [16] was 61.6%. For the same compound, the viability, T/C (second compound 1 µM, first compound 0.000316 µM) was 97.5%, the viability, T/C (second compound 1 µM, first compound 0.001 µM) was 92.8% and the viability, T/C [19] was 99%. For the same compound, the viability, T/C [20] was 92.2%, the viability, T/C [21] was 83.2% and the viability, T/C [22] was 48.3%. It also gave a viability, T/C (second compound 3.16 µM, first compound 0.000316 µM) of 92.5%, a viability, T/C (second compound 3.16 µM, first compound 0.001 µM) of 106% and a viability, T/C [25] of 83%. For the same compound, the viability, T/C [26] was 96.4%, the viability, T/C [27] was 80% and the viability, T/C [28] was 58%. The viability, T/C (second compound 10 µM, first compound 0.000316 µM) was 103%, the viability, T/C (second compound 10 µM, first compound 0.001 µM) was 89.4% and the viability, T/C [31] was 98.8%. For the same compound, the viability, T/C [32] was 95.4%, the viability, T/C [33] was 69.7% and the viability, T/C [34] was 60.9%.
